In patent US5424456A, “N-arylalkylderivatives of 2-aminomethyl-2,3-dihydro-1,4-benzodioxine and the process of preparation thereof” (Vyzkumny Ustav Pro Farmacii A Biochemii s.p., priority 1991, dated 1995):

Key:
calcium channel = molecular target: T1, calcium channel (Rattus norvegicus, UniProt P22002); assay: Calcium channel blocking activity, K+ depolarization-induced contraction of helically cut rat aortic strip; settings: Krebs-Henselheit solution, 37° C., cumulative doses, read-out: IC50 (50% decrease of contraction of the aortic strip)
T1 construct: helically cut rat aortic strip; from tissue; host or cells: rat aorta (helically cut strip)
Experimental: The calcium channel blocking activity of the compounds was tested using a helically cut rat aortic strip in Krebs-Henselheit solution at 37° C., bubbled with a mixture of 95% O2 and 5% CO2. The isometrically registered contractions were induced by K^(+). depolarization. The test compounds were applied in a cumulative doses and the vasodilating activity thereof was expressed in calculated concentration of the test compound, causing 50% decrease of contraction of the aortic strip (IC50).

α-adrenergic = molecular target: T2, α-adrenergic (Rattus norvegicus, UniProt P23944); assay: α-adrenergic blocking activity, norepinephrine-induced contraction of helically cut rat aortic strip; settings: 37° C., cumulative doses, read-out: IC50 (concentration causing 50% relaxation)
T2 construct: helically cut rat aortic strip; from tissue; host or cells: rat aorta (helically cut strip)
T2 sequence (P23944 1-561): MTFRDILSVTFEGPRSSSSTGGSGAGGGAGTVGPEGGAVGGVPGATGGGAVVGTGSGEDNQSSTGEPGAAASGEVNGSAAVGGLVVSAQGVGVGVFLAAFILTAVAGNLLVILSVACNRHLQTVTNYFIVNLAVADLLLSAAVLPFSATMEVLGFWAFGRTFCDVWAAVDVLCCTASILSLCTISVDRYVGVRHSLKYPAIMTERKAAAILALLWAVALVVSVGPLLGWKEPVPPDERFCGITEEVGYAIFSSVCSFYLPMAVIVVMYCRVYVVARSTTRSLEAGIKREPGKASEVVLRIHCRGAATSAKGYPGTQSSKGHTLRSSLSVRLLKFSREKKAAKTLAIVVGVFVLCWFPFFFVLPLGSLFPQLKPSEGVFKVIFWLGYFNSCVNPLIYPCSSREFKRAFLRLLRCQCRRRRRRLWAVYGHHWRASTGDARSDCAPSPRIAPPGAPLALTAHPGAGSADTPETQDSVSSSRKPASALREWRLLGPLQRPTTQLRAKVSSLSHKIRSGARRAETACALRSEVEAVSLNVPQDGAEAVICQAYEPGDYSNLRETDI
Experimental: a) The α-adrenergic blocking activity of the compounds was tested using a helically cut rat aortic strip in a Krebs-Henselheit solution at 37° C., bubbled with a mixture of 95% O2 and 5% CO2. Norepinephrine induced contractions were detected isometrically. The compounds were added in cumulative doses and the relaxing activity was expressed in per cents of the maximum norepinephrine contraction.

blood pressure [1] = assay: Hypotensive activity, pentobarbital anaesthesized rabbits; assay type: in vivo, rabbit; settings: i.v.
From the text: (§1) a) The blood pressure of pentobarbital anaesthesized rabbits was registered invasively in arteria femoralis. The average decrease in systolic (SBP) and diastolic (DBP) blood pressure expressed in per cents of the starting blood pressure level after intravenous and oral administration is shown in Tables 3 and 4.

blood pressure [2] = assay: Hypotensive activity, pentobarbital anaesthesized dogs; assay type: in vivo, dog; settings: i.v.
From the text: as §1, with “b) The” for “a) The”, “anaesthesized dogs” for “anaesthesized rabbits”, “(SBP) arid” for “(SBP) and”, “Tables 5” for “Tables 3”, “and 6.” for “and 4.”

[3] = tested on: rat peripheral venous thrombosis; assay: Antithrombotic activity, rat peripheral venous thrombosis in closed abdominal part of vena cava; assay type: in vivo; settings: po, rats, orally, read-out: statistically significant effective dose (mass of thrombi)
Experimental: The antithrombotic activity of the test compounds was established using the model of rat peripheral venous thrombosis in a closed abdominal part of vena cava. The thrombus was induced by intravenous administration of hypotonic solution of sodium chloride. The thrombus was freed 10 minutes after induction and weighted. The mass of thrombi in control animals was compared to the mass of thrombi of animals administered by the test compound. The statistically significant effective dose for compound VUFB 17951 was 0.5 mg/kg intravenously and 5 mg/kg orally and for the compound VUFB 17959 0.25 mg/kg and 1.0 mg/kg, respectively. The corresponding dose of a standard (Cilostazol, generic name, Merck index, 11th Edition, 2277) was 25 mg/kg orally.

[4] = 0.4 mg/kg, value 1 of 5 (heads 5/30/60/180 min; probably 1 min)
[5] = 0.4 mg/kg, value 2 of 5 (heads 5/30/60/180 min; probably 5 min)
[6] = 0.4 mg/kg, value 3 of 5 (heads 5/30/60/180 min; probably 30 min)
[7] = 0.4 mg/kg, value 4 of 5 (heads 5/30/60/180 min; probably 60 min)
[8] = 0.4 mg/kg, value 5 of 5 (heads 5/30/60/180 min; probably 180 min)
[9] = 4.0 mg/kg, value 1 of 5 (heads 5/30/60/180 min; probably 1 min)
[10] = 4.0 mg/kg, value 2 of 5 (heads 5/30/60/180 min; probably 5 min)
[11] = 4.0 mg/kg, value 3 of 5 (heads 5/30/60/180 min; probably 30 min)
[12] = 4.0 mg/kg, value 4 of 5 (heads 5/30/60/180 min; probably 60 min)
[13] = 4.0 mg/kg, value 5 of 5 (heads 5/30/60/180 min; probably 180 min)
[14] = 4.6 mg/kg, value 1 of 5 (heads 5/30/60/180 min; probably 1 min)
[15] = 4.6 mg/kg, value 2 of 5 (heads 5/30/60/180 min; probably 5 min)
[16] = 4.6 mg/kg, value 3 of 5 (heads 5/30/60/180 min; probably 30 min)
[17] = 4.6 mg/kg, value 4 of 5 (heads 5/30/60/180 min; probably 60 min)
[18] = 4.6 mg/kg, value 5 of 5 (heads 5/30/60/180 min; probably 180 min)

T1 sequence (P22002 whole entry): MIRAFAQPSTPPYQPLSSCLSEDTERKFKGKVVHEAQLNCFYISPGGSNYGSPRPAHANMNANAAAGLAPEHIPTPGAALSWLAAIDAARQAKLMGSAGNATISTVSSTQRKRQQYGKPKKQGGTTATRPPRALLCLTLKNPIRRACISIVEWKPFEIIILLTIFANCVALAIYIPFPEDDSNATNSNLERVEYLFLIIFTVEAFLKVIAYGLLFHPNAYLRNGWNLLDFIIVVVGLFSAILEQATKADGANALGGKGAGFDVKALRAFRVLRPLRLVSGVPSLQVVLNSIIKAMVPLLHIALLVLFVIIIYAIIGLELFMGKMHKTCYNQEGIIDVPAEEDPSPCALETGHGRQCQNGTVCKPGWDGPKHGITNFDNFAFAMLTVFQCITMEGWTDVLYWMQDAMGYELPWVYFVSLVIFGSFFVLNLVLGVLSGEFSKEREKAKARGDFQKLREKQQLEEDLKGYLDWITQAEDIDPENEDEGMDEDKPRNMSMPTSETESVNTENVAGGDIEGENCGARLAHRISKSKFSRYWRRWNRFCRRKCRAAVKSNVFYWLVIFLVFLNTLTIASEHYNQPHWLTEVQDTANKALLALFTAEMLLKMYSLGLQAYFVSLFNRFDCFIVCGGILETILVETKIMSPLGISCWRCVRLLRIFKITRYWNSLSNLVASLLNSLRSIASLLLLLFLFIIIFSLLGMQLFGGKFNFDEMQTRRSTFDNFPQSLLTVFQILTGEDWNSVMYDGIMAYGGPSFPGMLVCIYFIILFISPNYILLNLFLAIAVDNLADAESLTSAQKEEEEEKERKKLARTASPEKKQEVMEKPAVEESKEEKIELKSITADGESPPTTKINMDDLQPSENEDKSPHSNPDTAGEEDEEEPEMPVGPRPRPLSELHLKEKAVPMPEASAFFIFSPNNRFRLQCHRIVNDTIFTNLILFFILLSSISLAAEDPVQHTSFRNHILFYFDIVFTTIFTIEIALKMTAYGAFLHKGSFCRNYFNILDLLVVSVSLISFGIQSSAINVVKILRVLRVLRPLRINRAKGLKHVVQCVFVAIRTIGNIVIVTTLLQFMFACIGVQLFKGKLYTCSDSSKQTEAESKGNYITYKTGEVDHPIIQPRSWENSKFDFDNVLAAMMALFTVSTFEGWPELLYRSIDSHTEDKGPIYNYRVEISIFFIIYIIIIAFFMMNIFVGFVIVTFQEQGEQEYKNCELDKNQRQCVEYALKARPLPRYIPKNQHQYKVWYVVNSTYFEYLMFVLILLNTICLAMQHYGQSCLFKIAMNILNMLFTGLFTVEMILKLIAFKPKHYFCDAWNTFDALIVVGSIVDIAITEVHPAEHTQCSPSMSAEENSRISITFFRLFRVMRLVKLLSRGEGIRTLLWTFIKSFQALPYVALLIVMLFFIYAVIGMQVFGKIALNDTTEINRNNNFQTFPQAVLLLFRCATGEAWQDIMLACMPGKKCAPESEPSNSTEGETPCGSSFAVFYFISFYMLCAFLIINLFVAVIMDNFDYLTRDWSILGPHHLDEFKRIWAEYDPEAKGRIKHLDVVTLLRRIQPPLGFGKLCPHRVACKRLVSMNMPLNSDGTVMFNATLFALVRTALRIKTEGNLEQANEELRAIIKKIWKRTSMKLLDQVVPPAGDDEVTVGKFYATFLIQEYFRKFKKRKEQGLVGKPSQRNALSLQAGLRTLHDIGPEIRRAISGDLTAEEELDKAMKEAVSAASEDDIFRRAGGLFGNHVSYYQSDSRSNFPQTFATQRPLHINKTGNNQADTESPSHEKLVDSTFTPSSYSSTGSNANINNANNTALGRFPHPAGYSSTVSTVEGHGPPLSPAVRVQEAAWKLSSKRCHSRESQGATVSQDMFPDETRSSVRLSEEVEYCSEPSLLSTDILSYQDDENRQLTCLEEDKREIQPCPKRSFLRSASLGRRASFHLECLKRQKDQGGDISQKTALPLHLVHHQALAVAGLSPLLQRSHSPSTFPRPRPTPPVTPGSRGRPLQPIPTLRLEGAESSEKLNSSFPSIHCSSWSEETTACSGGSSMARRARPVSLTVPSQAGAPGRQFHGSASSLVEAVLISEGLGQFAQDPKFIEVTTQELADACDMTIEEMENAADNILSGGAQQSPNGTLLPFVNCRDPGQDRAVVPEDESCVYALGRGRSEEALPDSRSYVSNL
T1 sequence (P54290 25-1091 partner): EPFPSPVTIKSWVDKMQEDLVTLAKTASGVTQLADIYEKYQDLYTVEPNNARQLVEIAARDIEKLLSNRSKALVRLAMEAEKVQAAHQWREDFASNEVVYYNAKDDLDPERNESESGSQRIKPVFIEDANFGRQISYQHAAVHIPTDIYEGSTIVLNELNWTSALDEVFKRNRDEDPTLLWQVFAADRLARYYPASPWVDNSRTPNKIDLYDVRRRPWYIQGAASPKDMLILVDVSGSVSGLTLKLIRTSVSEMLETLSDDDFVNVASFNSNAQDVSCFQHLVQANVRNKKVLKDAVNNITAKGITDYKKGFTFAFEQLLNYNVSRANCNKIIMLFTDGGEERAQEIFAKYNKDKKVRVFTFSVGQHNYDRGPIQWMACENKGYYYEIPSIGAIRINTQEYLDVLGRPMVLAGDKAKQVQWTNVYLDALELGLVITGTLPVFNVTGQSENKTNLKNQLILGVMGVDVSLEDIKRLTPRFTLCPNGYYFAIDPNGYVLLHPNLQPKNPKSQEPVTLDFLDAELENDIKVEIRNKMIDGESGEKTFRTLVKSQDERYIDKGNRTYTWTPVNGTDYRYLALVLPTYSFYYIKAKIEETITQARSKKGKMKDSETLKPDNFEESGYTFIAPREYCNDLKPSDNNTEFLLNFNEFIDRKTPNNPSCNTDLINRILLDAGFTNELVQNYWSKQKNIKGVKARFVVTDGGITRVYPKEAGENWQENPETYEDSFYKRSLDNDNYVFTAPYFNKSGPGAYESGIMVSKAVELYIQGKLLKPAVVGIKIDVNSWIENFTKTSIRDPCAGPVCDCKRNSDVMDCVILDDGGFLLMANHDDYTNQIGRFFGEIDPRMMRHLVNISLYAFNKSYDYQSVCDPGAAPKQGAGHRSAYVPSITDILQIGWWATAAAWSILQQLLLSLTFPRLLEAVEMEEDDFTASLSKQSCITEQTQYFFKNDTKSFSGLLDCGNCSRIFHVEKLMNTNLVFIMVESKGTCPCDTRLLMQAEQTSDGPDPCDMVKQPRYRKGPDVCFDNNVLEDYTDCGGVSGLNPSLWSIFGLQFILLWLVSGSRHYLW

## CC(C)C(C#N)(CCCNCC1COc2ccccc2O1)c1ccccc1 (racemic) [VUFB 18087, 5-(2,3-dihydro-1,4-benzodioxin-2-ylmethylamino)-2-phenyl-2-isopropyl valeronitrile]
Calcium channel
  IC50: 8.5 µM
α-adrenergic
  IC50: 76 µM
Blood pressure [1]; 0.4 mg/kg, 1 min
  decrease in diastolic blood pressure (DBP): -32 per cents
  decrease in systolic blood pressure (SBP): -10 per cents
Blood pressure [1]; 0.4 mg/kg, 5 min
  decrease in diastolic blood pressure (DBP): -16 per cents
  decrease in systolic blood pressure (SBP): -19 per cents
Blood pressure [1]; 0.4 mg/kg, 30 min
  decrease in diastolic blood pressure (DBP): -18 per cents
  decrease in systolic blood pressure (SBP): -17 per cents
Blood pressure [1]; 0.4 mg/kg, 60 min
  decrease in diastolic blood pressure (DBP): -16 per cents
  decrease in systolic blood pressure (SBP): -17 per cents
Blood pressure [1]; 0.4 mg/kg, 180 min
  decrease in diastolic blood pressure (DBP): -8 per cents
  decrease in systolic blood pressure (SBP): -14 per cents
Blood pressure [1]; 4.0 mg/kg, 1 min
  decrease in diastolic blood pressure (DBP): -58 per cents
  decrease in systolic blood pressure (SBP): -45 per cents
Blood pressure [1]; 4.0 mg/kg, 5 min
  decrease in diastolic blood pressure (DBP): -43 per cents
  decrease in systolic blood pressure (SBP): -45 per cents
Blood pressure [1]; 4.0 mg/kg, 30 min
  decrease in diastolic blood pressure (DBP): -29 per cents
  decrease in systolic blood pressure (SBP): -30 per cents
Blood pressure [1]; 4.0 mg/kg, 60 min
  decrease in diastolic blood pressure (DBP): -29 per cents
  decrease in systolic blood pressure (SBP): -31 per cents
Blood pressure [1]; 4.0 mg/kg, 180 min
  decrease in diastolic blood pressure (DBP): -32 per cents
  decrease in systolic blood pressure (SBP): -28 per cents
Blood pressure [2]; [4]
  decrease in diastolic blood pressure (DBP): -37 per cents
  decrease in systolic blood pressure (SBP): -33 per cents
Blood pressure [2]; [5]
  decrease in diastolic blood pressure (DBP): -27 per cents
  decrease in systolic blood pressure (SBP): -29 per cents
Blood pressure [2]; [6]
  decrease in diastolic blood pressure (DBP): -27 per cents
  decrease in systolic blood pressure (SBP): -29 per cents
Blood pressure [2]; [7]
  decrease in diastolic blood pressure (DBP): -13 per cents
  decrease in systolic blood pressure (SBP): -19 per cents
Blood pressure [2]; [8]
  decrease in diastolic blood pressure (DBP): -13 per cents
  decrease in systolic blood pressure (SBP): -4 per cents
Blood pressure [2]; [9]
  decrease in diastolic blood pressure (DBP): -62 per cents
  decrease in systolic blood pressure (SBP): -49 per cents
Blood pressure [2]; [10]
  decrease in diastolic blood pressure (DBP): -31 per cents
  decrease in systolic blood pressure (SBP): -32 per cents
Blood pressure [2]; [11]
  decrease in diastolic blood pressure (DBP): -31 per cents
  decrease in systolic blood pressure (SBP): -31 per cents
Blood pressure [2]; [12]
  decrease in diastolic blood pressure (DBP): -26 per cents
  decrease in systolic blood pressure (SBP): -27 per cents
Blood pressure [2]; [13]
  decrease in diastolic blood pressure (DBP): -26 per cents
  decrease in systolic blood pressure (SBP): -22 per cents

## COc1ccc(C(C#N)(CCCNCC2COc3ccccc3O2)C(C)C)cc1OC (single isomer, unassigned) [VUFB 18020, 5-[(-)-2,3-dihydro-1,4-benzodioxin-2-ylmethylamino]-2-(3,4-dimeth-oxyphenyl)-2-isopropyl valeronitrile]
Calcium channel
  IC50: 25 µM
Blood pressure [2]; [14]
  decrease in diastolic blood pressure (DBP): -63 per cents
  decrease in systolic blood pressure (SBP): -46 per cents
Blood pressure [2]; [15]
  decrease in diastolic blood pressure (DBP): -63 per cents
  decrease in systolic blood pressure (SBP): -58 per cents
Blood pressure [2]; [16]
  decrease in diastolic blood pressure (DBP): -45 per cents
  decrease in systolic blood pressure (SBP): -43 per cents
Blood pressure [2]; [17]
  decrease in diastolic blood pressure (DBP): -37 per cents
  decrease in systolic blood pressure (SBP): -35 per cents
Blood pressure [2]; [18]
  decrease in diastolic blood pressure (DBP): -34 per cents
  decrease in systolic blood pressure (SBP): -40 per cents

## O=C1CCc2cc(OCCCCc3nnnn3C3CCCCC3)ccc2N1 [Cilostazol, reference compound]
[3]
  minimal effective dose: 25 mg/kg
